From patent US4237135A, “2-(4-Ethyl-1-piperazinyl)-4-phenylquinoline, process for preparation thereof, and composition thereof” (Dainippon Pharmaceutical Co., Ltd., priority 1978, dated 1980)
Where two headings read alike, the source gives them in different places.

Experiments:
[1] = tested on: hypothermia induced by reserpine; assay: Anti-reserpine activity: antagonistic effect on hypothermia induced by reserpine; type: in vivo, male STD-ddY strain mice; conditions: p.o.; for ED50: Mus musculus, po, 4 h, reserpine 5 mg/kg i.p.
Procedure: Pharmacological experiments have been done on the compound of the present invention, some known and novel analogous compounds and an antidepressant on the market, as mentioned below. In the experiments, ED50 was calculated by Litchfield-Wilcoxon method. This effect was examined according to the method of […]. 2, 725 (1963)], using male STD-ddY strain mice weighing 20-25 g. […] Rectal temperature of each mouse was measured 4 hours later with a thermister (Shibaura Electric, BMG III-130).

[2] = tested on: catalepsy induced by reserpine; assay: Anti-reserpine activity: antagonistic effect on catalepsy induced by reserpine; type: in vivo, male STD-ddY strain mice; conditions: p.o.; for ED50: Mus musculus, po, 1 h, reserpine 5 mg/kg i.p.
Procedure: In the experiments, ED50 was calculated by Litchfield-Wilcoxon method. Male STD-ddY strain mice, weighing […], were used in groups of 10 mice each. […] The mice were tested for catalepsy 1 hour after the administration of test compounds. ED50 was calculated for each compound.

[3] = tested on: ptosis induced by tetrabenazine; assay: Anti-tetrabenazine activity: antagonistic effect on ptosis induced by tetrabenazine; type: in vivo, male STD-ddY strain mice; conditions: Mus musculus, po; tetrabenazine 70 mg/kg i.p.; Table 2
Procedure: Pharmacological experiments have been done on the compound of the present invention, some known and novel analogous compounds and an antidepressant on the market, as mentioned below. In the experiments, ED50 was calculated by Litchfield-Wilcoxon method. Male STD-ddY strain mice, weighing 20-25 g, were used in groups of 10 mice each. […] Two hours after the tetrabenazine injection, the degree of eyelid closure (ptosis) was assessed on the basis of macroscopic scoring (0: no closure of the eyelid, 1: 1/4 closure, 2: 2/4 closure, 3: 3/4 closure and 4: complete closure), essentially according to the method of P. A. J. Janssen [Arzneim. Forsch. 15, 104 (1965)]. ED50 was calcuated for each compound.

[4] = tested on: spontaneous locomotor activity; assay: Inhibitory effect on spontaneous locomotor activity; type: in vivo, male STD-ddY strain mice; conditions: for ED50: Mus musculus, po, read-out: Spontan. locomotor ED50; for Inhibition of spontaneous locomotion (in words): p.o.
Procedure: (§1) Pharmacological experiments have been done on the compound of the present invention, some known and novel analogous compounds and an antidepressant on the market, as mentioned below. In the experiments, ED50 was calculated by Litchfield-Wilcoxon method.
Male mice of STD-ddY strain, weighing 20-25 g, were used in groups of 5 mice each. Each test compound was given orally to the mice in 5 different doses, and 2 hours later the spontaneous locomotor activity of each mouse was measured for 3 minutes by means of an Animex locomotor activity meter (made by Farad Electronics). ED50 was calculated for each compound. The ED50 means the dose of test compound in which the locomotor activity was reduced to 50% of that of control group receiving saline.

[5] = tested on: methamphetamine-induced locomotor activity; assay: Anti-methamphetamine effect (inhibitory effect on methamphetamine-induced locomotor activity); type: in vivo, male STD-ddY strain mice; conditions: for ED50: Mus musculus, ip, read-out: Anti-methamphetamine ED50; for Antagonizing methamphetamine-induced locomotor activity (in words): i.p.
Procedure: as §1
Male STD-ddY strain mice, weighing 20-25 g, were used in groups of 10 mice each. Groups of mice were injected intraperitoneally with 4 mg/kg of methamphetamine, and 30 minutes later each test compound was injected intraperitoneally in 3 different doses. One hour after the injection of methamphetamine, locomotor activity of each mouse was measured for 10 minutes with an Animex locomotor activity meter.

[6] = tested on: antidepressant activity; assay: Antidepressant activity, overall (Test 1); type: in vivo, male STD-ddY strain mice; male Wistar strain rats; conditions: overall conclusion
Procedure: This effect was examined according to the method of […]. 2, 725 (1963)], using male STD-ddY strain mice weighing 20-25 g. […] Rectal temperature of each mouse was measured 4 hours later with a thermister (Shibaura Electric, BMG III-130). […] Male STD-ddY strain mice, weighing […], were used in groups of 10 mice each. […] The mice were tested for catalepsy 1 hour after the administration of test compounds. ED50 was calculated for each compound. […] Male STD-ddY strain mice, weighing 20-25 g, were used in groups of 10 mice each. […] Two hours after the tetrabenazine injection, the degree of eyelid closure (ptosis) was assessed on the basis of macroscopic scoring (0: no closure of the eyelid, 1: 1/4 closure, 2: 2/4 closure, 3: 3/4 closure and 4: complete closure), essentially according to the method of P. A. J. Janssen [Arzneim. Forsch. 15, 104 (1965)]. ED50 was calcuated for each compound. […] Male Wistar strain rats, weighing 240-260 g, which had developed mouse-killing behavior after ablation of the olfactory bulb according to the method of Z. P. Horovitz [Int. J. Neuropharmacol. 5, 405 (1966)], were used in groups of 15 animals each. […] ED50 was calculated for each compound.

[7] = tested on: spontaneous and methamphetamine-induced locomotor activities; assay: Neuroleptics-like activity, overall (Test 2); type: in vivo, male STD-ddY strain mice; conditions: overall conclusion
[8] = Table 2, read-out: Anti-reserpine ED50, hypothermia
[9] = Table 2, read-out: Anti-reserpine ED50, catalepsy

| Compound | ED50 [1, 8] | ED50 [2, 9] | ED50 [3] | ED50 ([4]; 2 hours after dosing) | Inhibition of spontaneous locomotion (in words) [4] | ED50 ([5]; methamphetamine 4 mg/kg i.p.) | Antagonizing methamphetamine-induced locomotor activity (in words) [5] | Antidepressant activity (in words) [6] | Neuroleptics-like activity (in words) [7] | ED50 ([4]; 2 h) | ED50 [5] | ED50 ([1]; Table 1, read-out: Anti-reserpine activity ED50, hypothermia) | Activity in antagonizing reserpine hypothermia relative to compound A ([1]; versus compound A) | ED50 ([2]; Table 1, read-out: Anti-reserpine activity ED50, catalepsy) | Activity in antagonizing reserpine catalepsy relative to compound A ([2]; versus compound A) |
| --- | --- | --- | --- | --- | --- | --- | --- | --- | --- | --- | --- | --- | --- | --- | --- |
| CCCCN1CCN(c2cc(-c3ccccc3)c3ccccc3n2)CC1.O=C(O)/C=C\C(=O)O.O=C(O)/C=C\C(=O)O [Compound 5, 2-(4-n-Butyl-1-piperazinyl)-4-phenylquinoline dimaleate] | 13.7 mg/kg | 6.3 mg/kg | 29.9 mg/kg | 50.6 mg/kg | as potent as compound A | 16.4 mg/kg | somewhat less potent | inferior to compound A | – | – | – | – | – | – | – |
| CN1CCN(c2cc(-c3ccccc3)c3ccccc3n2)CC1 [Compound 3, 2-(4-Methyl-1-piperazinyl)-4-phenylquinoline] | 13.9 mg/kg | 4.7 mg/kg | 10.4 mg/kg | 56.4 mg/kg | as potent as compound A | 12.9 mg/kg | somewhat less potent | much less potent than the latter | comparable to compound A | – | – | – | – | – | – |
| CN(C)CCCN1c2ccccc2Sc2ccc(Cl)cc21 [Compound 7, 2chloro-10-(3-dimethylaminopropyl)phenothiazine] | – | – | – | – | – | – | – | – | – | 7.4 mg/kg | 1 mg/kg | – | – | – | – |
| CN1CCN(c2cc(-c3ccccc3)c3cc(Cl)ccc3n2)CC1.Cl.Cl [Compound 1, 6-Chloro-2-(4-methyl-1-piperazinyl)-4-phenylquinoline dihydrochloride] | – | – | – | > 200 mg/kg | devoid of both activities | > 30 mg/kg | devoid of both activities | – | not seen | – | – | 30.8 mg/kg | 5 times less active | 20 mg/kg | 13 times less active |
